The values below come from patent US20110039799A1, “A1 ADENOSINE RECEPTOR AGONIST POLYMORPHS” (Gilead Palo Alto, Inc., priority 2009, published 2011).

The conditions of data set [1]: in vivo, US 2007/018505 Example 32; cited from earlier work.
The nature of data set [2]: Water vapor sorption (dynamic vapor adsorption), hygroscopicity. The note with it: adsorption/desorption 5% to 95% relative humidity. The class given is physicochemical. On the procedure: Water vapor sorption data were collected on a VTI SGA-100 Vapor Sorption Analyzer. Adsorption and desorption data were collected over a range of 5% to 95% relative humidity (RH) at 10% RH intervals under a nitrogen purge. The samples were not dried prior to analyses. Equilibrium criteria used for the analyses were less than 0.0100% weight change in 5 minutes, with a maximum equilibration time of 3 hours if the weight criterion was not met. Data were not corrected for the initial moisture content of the samples. NaCl and PVP were used as calibration standards.

Data set [3] is described as follows: Solid-state stability by DSC thermogram (storage, wet granulation, direct compression, grinding). The conditions noted are these: for stability when stored, in comparison to compound formed from Example 1: storage, ambient temperature and 75% relative humidity (Form III 5 months, Form IV 3 months). The class given is physicochemical. How it is done: Differential scanning calorimetry (DSC) was performed using a TA Instruments differential scanning calorimeter either Q1000 or Q2000. The sample was placed into an aluminum DSC pan, and the weight accurately recorded. The pan was covered with a lid (sometimes the lid was perforated with a (laser) pinhole to allow for pressure release), and then either crimped or hermetically sealed. The sample cell was equilibrated at either 25° C. (Q2000) or 40° C. (Q1000) and heated under a nitrogen purge at a rate of 10° C./min, up to a final temperature of either 180 (Q1000)° C. or 250° C. (Q2000). Indium metal was used as the calibration standard.

The conditions of data set [4]: cited from earlier work.

Entries after “also recorded” stand apart in the source; their conditions may differ.

Consider `O[C@@H]1[C@H](O)[C@@H](CSc2ccccc2F)O[C@H]1n1cnc2c(N[C@@H]3CCC[C@H]3O)ncnc21` [GS-9667, 2-{6-[((1R,2R)-2-hydroxycyclopentyl)amino]purin-9-yl}(4S,5S,2R,3R)-5-[(2-fluorophenylthio)methyl]oxolane-3,4-diol], for which, in data set [1], the “circulating free fatty acides (FFA)” value is recorded as “lowering”, the insulin sensitivity entry is listed as “improving” and the “serum triglyceride (TG) levels” value is recorded as “lowering”.
`O[C@@H]1[C@H](O)[C@@H](CSc2ccccc2F)O[C@H]1n1cnc2c(N[C@@H]3CCC[C@H]3O)ncnc21` [Example 1, 2-{6-[((1R,2R)-2-hydroxycyclopentyl)amino]purin-9-yl}(4S,5S,2R,3R)-5-[(2-fluorophenylthio)methyl]oxolane-3,4-diol]: the “hygroscopicity by dynamic vapor adsorption” value (from here on “hygroscopicity”) in data set [2] is recorded as “high hygroscopicity”. Besides, in data set [3], the “solid-state stability by DSC thermogram when subjected to direct compression and grinding” value is “DSC thermogram change and instability”; the “solid-state stability by DSC thermogram when subjected to wet granulation” value was “DSC thermogram change and instability”. Further, in data set [3] (storage at 40° C. and 75% relative humidity for 2 months), the “DSC thermogram upon storage” value was “DSC thermogram change”.
`O[C@@H]1[C@H](O)[C@@H](CSc2ccccc2F)O[C@H]1n1cnc2c(N[C@@H]3CCC[C@H]3O)ncnc21` [Form III, 2-{6-[((1R,2R)-2-hydroxycyclopentyl)amino]purin-9-yl}(4S,5S,2R,3R)-5-[(2-fluorophenylthio)methyl]oxolane-3,4-diol]: in data set [2], the “hygroscopicity” value is listed as “non-hygroscopic; also recorded: not hygroscopic”. In data set [3], the “solid-state stability by DSC thermogram when subjected to direct compression and grinding” value is recorded as “not affected”; the “stability when stored, in comparison to compound formed from Example 1” value is “enhanced stability”; the “solid-state stability by DSC thermogram when subjected to wet granulation” value is recorded as “not affected”. Moreover, the “stability to moisture, mechanical stress, pharmaceutical processing, and temperature changes, relative to other crystalline forms” value in data set [3] (general statement) is given as “superior”.
With `Nc1ncnc2c1ncn2[C@@H]1O[C@H](CO)[C@@H](O)[C@H]1O` [adenosine, Adenosine], in data set [4], the half-life result is given as “less than 10 seconds”.
Turning to `O[C@@H]1[C@H](O)[C@@H](CSc2ccccc2F)O[C@H]1n1cnc2c(N[C@@H]3CCC[C@H]3O)ncnc21` [Form IV, 2-{6-[((1R,2R)-2-hydroxycyclopentyl)amino]purin-9-yl}(4S,5S,2R,3R)-5-[(2-fluorophenylthio)methyl]oxolane-3,4-diol], the “hygroscopicity” value in data set [2] was “non-hygroscopic; also recorded: not hygroscopic”. For the same compound, in data set [3], the “stability when stored, in comparison to compound formed from Example 1” value was “enhanced stability”.
